Numbering of substitutions follows the chain as printed. Counter-ions that a name gives are not always drawn. Like-named read-outs stand apart in the source and are kept apart here.
How the values were obtained:
σ1R = conditions: cited from earlier work; for Ki: inhibition of radioligand (e.g. [3H]SKF-10,047) binding to σ1R
xlσ1R E169A = biological target: T1, xlσ1R E169A (Xenopus laevis, UniProt Q6DCU6, E169A); assay: Microscale thermophoresis (MST) binding to xlσ1R E169A mutant
T1 construct: hemagglutinin signal peptide (N); made in house; host or cells: Pichia pastoris GS115
T1 sequence (Q6DCU6 1-221 E169A): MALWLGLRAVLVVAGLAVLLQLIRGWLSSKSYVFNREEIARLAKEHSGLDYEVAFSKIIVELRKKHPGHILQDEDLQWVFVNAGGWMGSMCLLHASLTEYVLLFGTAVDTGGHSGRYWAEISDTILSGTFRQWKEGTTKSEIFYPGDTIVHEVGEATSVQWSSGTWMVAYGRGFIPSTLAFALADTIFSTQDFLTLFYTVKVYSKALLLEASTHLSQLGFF

xlσ1R wild-type = biological target: T2, xlσ1R wild-type (Xenopus laevis, UniProt Q6DCU6); assay: Microscale thermophoresis (MST) binding to xlσ1R wild-type
T2 construct: hemagglutinin signal peptide (N); made in house; host or cells: Pichia pastoris GS115
T2 sequence (Q6DCU6 1-221): T1 sequence (Q6DCU6 1-221 E169A) with A169E

[1] = biological target: the molecule itself; assay: crystal structure; sitting-drop vapour diffusion at 20 °C; 0.32 M LiCl, 0.1 M sodium citrate pH 5.5, 12% PEG 4000, 10% glycerol, 15 mM sodium cholate; protein in OG/CHS; no ligand added, or with 1 mM progesterone or 1 mM DHEAS; space groups I432 (trimer by crystal symmetry) and C2 (two trimers in the asymmetric unit)

C[C@]12CC[C@H](O)CC1=CC[C@@H]1[C@@H]2CC[C@]2(C)C(=O)CC[C@@H]12 [DHEA, dehydroepiandrosterone]
Ki (σ1R): micromolar range or more

CC12CCC3C(CC=C4CC(OS(=O)(=O)O)CCC43C)C1CCC2=O (stereo not drawn) [DHEAS, dehydroepiandrosterone sulfate]
Kd (xlσ1R E169A; read-out: Kd (mean), MST, xlσ1R E169A, N = 3, mean (± SD)): 456 ± 17 µM
Kd (xlσ1R E169A; read-out: Kd Mean, Source Data sheet Supplementary Table 3, E169A, mean of 3): 456 µM
Kd (xlσ1R E169A; read-out: Kd Repeat 1, Source Data sheet Supplementary Table 3, E169A, repeat 1): 471 µM
Kd (xlσ1R E169A; read-out: Kd Repeat 2, Source Data sheet Supplementary Table 3, E169A, repeat 2): 438 µM
Kd (xlσ1R E169A; read-out: Kd Repeat 3, Source Data sheet Supplementary Table 3, E169A, repeat 3): 460 µM
Kd (xlσ1R wild-type; read-out: Kd (mean), MST, wild-type xlσ1R, N = 3, mean (± SD)): 18 ± 2.5 µM
Kd (xlσ1R wild-type; read-out: Kd Mean, Source Data sheet Supplementary Table 3, wild-type, mean of 3): 18 µM
Kd (xlσ1R wild-type; read-out: Kd Repeat 1, Source Data sheet Supplementary Table 3, wild-type, repeat 1): 17.2 µM
Kd (xlσ1R wild-type; read-out: Kd Repeat 2, Source Data sheet Supplementary Table 3, wild-type, repeat 2): 15.9 µM
Kd (xlσ1R wild-type; read-out: Kd Repeat 3, Source Data sheet Supplementary Table 3, wild-type, repeat 3): 20.8 µM
Ki (σ1R): micromolar range or more

CCCCCCCCO[C@@H]1O[C@H](CO)[C@@H](O)[C@H](O)[C@H]1O [OG, octyl-β-D-glucopyranoside]
Kd (xlσ1R wild-type; MST binding assay, xlσ1R, printed only in peer review file, OG data removed from final manuscript, read-out: Kd): 8300 ± 2700 µM

CC(=O)[C@H]1CC[C@H]2[C@@H]3CCC4=CC(=O)CC[C@]4(C)[C@H]3CC[C@]12C [progesterone]
Kd (xlσ1R wild-type; MST, wild-type xlσ1R, N = 3, mean (± SD), read-out: Kd (mean)): 0.94 ± 0.22 µM
Kd (xlσ1R wild-type; Source Data sheet Supplementary Table 3, wild-type, repeat 1, read-out: Kd Repeat 1): 0.71 µM
Kd (xlσ1R wild-type; Source Data sheet Supplementary Table 3, wild-type, repeat 2, read-out: Kd Repeat 2): 0.96 µM
Kd (xlσ1R wild-type; Source Data sheet Supplementary Table 3, wild-type, repeat 3, read-out: Kd Repeat 3): 1.14 µM
affinity for σ1R (σ1R): in μM range
Ki (σ1R): submicromolar range

pregnenolone sulfate
Ki (σ1R): micromolar range or more

B1: sigma-1 receptor from Xenopus laevis (xlσ1R), wild type, purification tag removed (receptor)
chain: T1 sequence (Q6DCU6 1-221 E169A) with A169E
notes: sigma-1 receptor, Xenopus laevis, NCBI NP_001087013.1, wild type; the simulation methods speak of residues 1-33 (transmembrane helix) and 34-219 of the crystal model; Cloned in a modified pPICZ plasmid after a hemagglutinin signal peptide, a decahistidine tag and a TEV protease site; the tag was removed by TEV protease before crystallisation; also called xlσ1R_(unknown-lig); xlσ1R_(prog-co); not …
stoichiometry N [1]: 3
